Results published in patent US20260207614A1, “IRAK4 DEGRADERS AND USES THEREOF” (Kymera Therapeutics, Inc., priority 2022, published 2026).
Entries after “also recorded” stand apart in the source; their conditions may differ.

How the values were obtained:
[1] = tested on: ex vivo proinflammatory cytokine induction by R848 and LPS in whole blood; assay: Phase 1 MAD ex vivo cytokine induction by R848 and LPS in whole blood; parameters: species or system human; conditions: daily up to about 200 mg, Day 7-14, FIG. 16
Excerpt: In some embodiments, the cytokines include IFN-γ, IL-12, IL-1β, IL-10, IL-6, TNF-α, IL-8, IL-17, and IL-23.

Permeability = assay type: in vitro ADME
Excerpt: (§1) In in vivo pharmacokinetic (PK) studies conducted in rats, dogs, and monkeys.
Compound A can be classified tentatively as a BCS II compound.

[2] = tested on: disease-relevant cytokines ex vivo; assay: Phase 1 Part C ex vivo cytokine stimulation assays; assay type: in vivo, human
Excerpt: Plots show median of the maximum change from baseline between Days 7-14 in MAD3 and Days 14-28 in Part C.
IL-36, IFN-g, IL-8, IL-5, GZMB and COX2 in HS and IL-5, IL-31, NLRP3, CXCL1 and IL-2RB in AD (FIG. 25A-B).

[3] = tested on: proinflammatory gene transcripts; assay: Phase 1 Part C proinflammatory gene transcripts in skin lesions (RNAseq); assay type: in vivo, human; conditions: Day 28 compared to baseline
[4] = In vivo PK studies in rats, dogs and monkeys
Excerpt: as §1

[5] = Phase 1 SAD safety and tolerability; assay type: in vivo, human
Excerpt: Part A: Part A is a double-blind, randomized, placebo-controlled, SAD, sequential group study in 56 adult HVs, divided in 7 cohorts of eight HVs each. Seven ascending single doses (1 dose level per cohort) will be investigated. One or more additional cohorts may be added, as needed.
• Treatment-emergent (serious) adverse events ([S]AEs) • Concomitant medication • Clinical laboratory tests • Hematology • Coagulation • Chemistry • Urinalysis and urine microscopy • Vital signs • Pulse Rate (bpm) • Systolic blood pressure (BP) (mm Hg) • Diastolic BP (mm Hg) • Respiratory rate • Temperature • Safety electrocardiogram and Holter monitoring • Heart Rate (bpm). PR, QRS, QT, QTcF
All data will be fully listed.

Phase 1 Part C safety = assay type: in vivo, human
Experimental: That dose was selected to achieve similar exposures to healthy volunteers in the multiple ascending dose (MAD) portion of the Phase 1 trial who received 100 mg in the fasted state (MAD3).

[6] = tested on: imiquimod psoriasis model (TLR 7/8-dependent); assay: Imiquimod psoriasis model; assay type: in vivo, murine
Excerpt: Overall, efficacy was associated with achieving at least 80% or more IRAK4 knockdown in associated tissues in the model systems.

[7] = blinded SAD, study treatment related, per Investigator

Cn1c(=O)n([C@@H]2CCC(=O)NC2=O)c2cccc(C#CCOC3CCN(C[C@H]4CC[C@H](n5cc(NC(=O)c6cnn7ccc(N8C[C@H]9C[C@@H]8CO9)nc67)c(C(F)F)n5)CC4)CC3)c21 [Compound A, 5-((1R,4R)-2-oxa-5-azabicyclo[2.2.1]heptan-5-yl)-N-(3-(difluoromethyl)-1-((1r,4R)-4-((4-((3-(1-(2,6-dioxopiperidin-3-yl)-3-methyl-2-oxo-2,3-dihydro-1H-benzo[d]imidazol-4-yl)prop-2-yn-1-yl)oxy)piperidin-1-yl)methyl)cyclohexyl)-1H-pyrazol-4-yl)pyrazolo[1,5-a]pyrimidine-3-carboxamide]
inhibition of IFN-γ [1]: up to 85%
inhibition of IL-1β [1]: up to 68%
inhibition of IL-6 [1]: up to 54%
inhibition of IL-8 [1]: up to 46%
inhibition of IL-10 [1]: up to 50%
inhibition of IL-12 [1]: up to 72%
inhibition of IL-17 [1]: up to 46%
inhibition of TNF-α [1]: up to 59%
permeability (Permeability): medium; also recorded: moderate
inhibition of disease-relevant cytokines ex vivo, maximum ([2]; AD patients): up to 98%
cytokine inhibition, IFN-γ ([2]; AD patients, FIG. 23): up to 95%
cytokine inhibition, IL-1β ([2]; AD patients, FIG. 23): up to 81%
cytokine inhibition, IL-6 ([2]; AD patients, FIG. 23): up to 74%
cytokine inhibition, IL-8 ([2]; AD patients, FIG. 23): up to 85%
cytokine inhibition, IL-10 ([2]; AD patients, FIG. 23): up to 98%
cytokine inhibition, IL-12 ([2]; AD patients, FIG. 23): up to 76%
cytokine inhibition, IL-17 ([2]; AD patients, FIG. 23): up to 83%
cytokine inhibition, IL-23 ([2]; AD patients, FIG. 23): up to 95%
cytokine inhibition, TNF-α ([2]; AD patients, FIG. 23): up to 74%
inhibition of disease-relevant cytokines ex vivo, maximum ([2]; HS patients): up to 84%
cytokine inhibition, IFN-γ ([2]; HS patients, FIG. 23): up to 76%
cytokine inhibition, IL-1β ([2]; HS patients, FIG. 23): up to 57%
cytokine inhibition, IL-6 ([2]; HS patients, FIG. 23): up to 50%
cytokine inhibition, IL-8 ([2]; HS patients, FIG. 23): up to 59%
cytokine inhibition, IL-10 ([2]; HS patients, FIG. 23): up to 52%
cytokine inhibition, IL-12 ([2]; HS patients, FIG. 23): up to 84%
cytokine inhibition, IL-17 ([2]; HS patients, FIG. 23): up to 46%
cytokine inhibition, TNF-α ([2]; HS patients, FIG. 23): up to 54%
inhibition of 9 disease-relevant cytokines ex vivo, maximum ([2]; HS/AD patients, median of maximum change from baseline Days 14-28): up to 98%
downregulation of proinflammatory gene transcripts in skin lesions (IL-5, IL-31, NLRP3, CXCL1, IL-2RB) ([3]; AD patients): > 25%
downregulation of proinflammatory gene transcripts in skin lesions (IL-1b, IL-17, IL-36, IFN-g, IL-8, IL-5, GZMB, COX2) ([3]; HS patients): > 25%
bioavailability [4]: low to moderate
clearance [4]: moderate to high
terminal half-life [4]: moderate
volume of distribution at steady state [4]: high
Abdominal pain, Severity ([5]; Cohort SAD 5): Mild
Diarrhea, Severity ([5]; Cohort SAD 5): Mild
Headache, Severity ([5]; Cohort SAD 5): Mild (x2)
Palpitations, Severity ([5]; Cohort SAD 5): Mild
Headache, Severity ([5]; Cohort SAD 5, SAD 5 FE, SAD 6): Moderate (x3)
Diarrhea, Severity ([5]; Cohort SAD 5 FE): Mild
Nausea, Severity ([5]; Cohort SAD 5 FE): Mild
Vomiting, Severity ([5]; Cohort SAD 5 FE): Mild (x2)
Muscle weakness, Severity ([5]; Cohort SAD 6): Mild
Myalgia, Severity ([5]; Cohort SAD 6): Mild
Nausea, Severity ([5]; Cohort SAD 6): Mild (x2)
ECG changes ([5]; SAD): No significant ECG changes
QTcF prolongation ([5]; SAD): no clinically significant QTcF prolongation
serious adverse events ([5]; SAD): no serious adverse events; also recorded: No SAEs
AST elevation ([5]; SAD 5, n=1, resolution ~Day 21): 3.8 ×ULN
ALT elevation ([5]; SAD 5, n=1, slow resolution to baseline): 2.5 ×ULN
Abdominal pain, #AEs (subjects) [5, 7]: 1
Diarrhea, #AEs (subjects) [5, 7]: 2 (2)
Headache, #AEs (subjects) [5, 7]: 5 (4)
Muscle weakness, #AEs (subjects) [5, 7]: 1
Myalgia, #AEs (subjects) [5, 7]: 1
Nausea, #AEs (subjects) [5, 7]: 3 (3)
Palpitations, #AEs (subjects) [5, 7]: 1
Vomiting, #AEs (subjects) [5, 7]: 2 (1)
safety and tolerability ([5]; single doses, healthy volunteers): safe and well-tolerated
course of QTc prolongation with continued dosing (Phase 1 Part C safety): resolution to baseline by Day 28; also recorded: spontaneously resolved to baseline by Day 28
serious adverse events (Phase 1 Part C safety): no serious adverse events
severity of adverse events (headache, fatigue, diarrhea) (Phase 1 Part C safety): predominantly mild
safety and tolerability (Phase 1 Part C safety; 75 mg QD fed, 28 days, HS/AD patients): generally safe and well-tolerated
QTcF prolongation (Phase 1 Part C safety; Days 7-14): modest, non-adverse QTcF prolongation
degradation of IRAK4 in the spleen and skin ([6]; mouse, in vivo): dose-dependent degradation
skin thickness ([6]; mouse, in vivo): reduction in skin thickness
IL-1β in the skin ([6]; p<0.0001): significant reduction
IL-6 in the skin ([6]; p<0.05, 300 mg/kg only): significant reduction
